Laboratory results: patent publication US5212185A, “Piperidinyl-terminated alkylamino ethynyl alanine amino diol compounds for treatment of hypertension” (G. D. Searle & Co., priority 1992, dated 1993)
Square brackets hold non-standard residues; d marks the D form. Peptide text beside a SMILES is read from it. * marks the point of attachment. Sta = CC(C)C[C@H](N)[C@@H](O)CC(=O)O; Isovaleryl = CC(C)CC(=O)*

Assays:
[1] = target: T1, human renin (Homo sapiens, UniProt P00797); assay: Human Renin Inhibition in vitro (angiotensin I generation by radioimmunoassay); type: biochemical; conditions: pH 7.4, 37° C., two hours, human plasma
T1 construct: purchased National Institute for Biological Standards, London
T1 sequence (P00797 67-406): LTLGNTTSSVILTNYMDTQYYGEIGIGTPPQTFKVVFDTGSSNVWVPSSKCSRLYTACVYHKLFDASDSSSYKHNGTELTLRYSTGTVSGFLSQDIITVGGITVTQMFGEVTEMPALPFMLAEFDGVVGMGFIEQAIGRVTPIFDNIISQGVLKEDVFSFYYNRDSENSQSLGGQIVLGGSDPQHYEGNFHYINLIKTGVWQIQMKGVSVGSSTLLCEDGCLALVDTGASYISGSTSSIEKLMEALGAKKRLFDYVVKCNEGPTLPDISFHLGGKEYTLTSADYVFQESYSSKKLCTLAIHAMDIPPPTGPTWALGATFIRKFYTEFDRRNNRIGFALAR
Procedure: Compounds of Formula I were evaluated as inhibitors of human renin in an in vitro assay, as follows: This human renin inhibition test has been previously described in detail [Papaioannou et al., Clinical and Experimental Hypertension, A7(9), 1243-1257 (1985)]. Human renin was obtained from the National Institute for Biological Standards, London. An incubation mixture was prepared containing the following components: in a total volume of 0.25 mL: 100 mM Tris-acetate buffer at pH 7.4, 25×10^-6 Goldblatt units of renin, 0.05 mL of plasma from human volunteers taking oral contraceptives, 6.0 mM Na-EDTA, 2.4 mM phenylmethyl sulfonyl fluoride, 1.5 mM 8-hydroxyquinoline, 0.4 mg/mL bovine serum albumin (BSA), and 0.024 mg/mL neomycin sulfate. This mixture was incubated for two hours at 37° C. in the presence or absence of renin inhibitors. The produced angiotensin I was determined by radioimmunoassay (New England Nuclear kit). Test compounds to be assayed were dissolved in DMSO and diluted with 100mM Tris-acetate buffer at pH 7.4 containing 0.5% BSA to the appropriate concentration. The final concentration of organic solvent in the reaction mixture was less than 1%. Control incubations at 37° C. were used to correct for effects of organic solvent on renin activity.

[2] = tested on: renin; conditions: cited from earlier work
[3] = tested on: hog renin; conditions: after the injection of hog renin into nephrectomized rats; cited from earlier work
[4] = tested on: acid proteases; conditions: cited from earlier work
[5] = tested on: cathepsin D; conditions: cited from earlier work
[6] = tested on: pepsin; conditions: cited from earlier work

## C#CC[C@H](NC(=O)[C@@H](CC(=O)N(C)CCN1Cc2ccccc2C1)Cc1ccccc1)C(=O)N[C@@H](CC1CCCCC1)[C@@H](O)[C@@H](O)CC(C)C [Example 2]
[1]
  IC50: 560 pM

## CC(C)CC(=O)N[C@H](C(=O)N[C@H](C(=O)N[C@@H](CC(C)C)[C@@H](O)CC(=O)N[C@@H](C)C(=O)N[C@@H](CC(C)C)[C@@H](O)CC(=O)O)C(C)C)C(C)C [pepstatin] (Isovaleryl-VV[Sta]A[Sta]-OH)
[2]
  inhibition of renin: inhibitor of aspartyl proteases such as pepsin, cathepsin D and renin
[3]
  reduce blood pressure in vivo: found to reduce blood pressure in vivo
[4]
  inhibiting acid proteases in addition to renin: inhibiting acid proteases in addition to renin
[5]
  inhibition of cathepsin D: inhibitor of aspartyl proteases such as pepsin, cathepsin D
[6]
  inhibition of pepsin: inhibitor of aspartyl proteases such as pepsin

## C#CC[C@H](NC(=O)[C@@H](CC(=O)N(C)CCN1CCCCC1)Cc1ccccc1)C(=O)N[C@@H](CC1CCCCC1)[C@@H](O)[C@@H](O)CC(C)C [Example 1]
[1]
  IC50: 830 pM

## C#CC[C@H](NC(=O)[C@@H](CC(=O)N(C)CCN1CC2CCC(CC2)C1)Cc1ccccc1)C(=O)N[C@@H](CC1CCCCC1)[C@@H](O)[C@@H](O)CC(C)C [Example 3]
[1]
  IC50: 1200 pM
